The subject of the assay is BDF1 mice, P388 leukemia ip, median survival T/C. Description: NCI In Vivo Anticancer Drug Screen. Data for tumor model P388 Leukemia (intraperitoneal) in B6D2F1 (BDF1) mice. The conditions noted are these: endpoint: median survival time, higher = longer survival. A digest of the protocol: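 Compound-treated tumour-bearing mice were compared with vehicle-treated controls. Survival was recorded, and the value is the treated-group measurement divided by the control-group measurement (T/C).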

[1] abbreviates: dose: 100.0 mg/kg/injection, schedule: Q01DX009 (ip), vehicle: saline with Tween-80.
Where [2] appears, read: dose: 100.0 mg/kg/injection, schedule: Q04DX003 (ip), vehicle: saline with Tween-80.
Setting [3] is: dose: 200.0 mg/kg/injection, schedule: Q04DX003 (ip), vehicle: saline with Tween-80.
The mark [4] stands for this setting: dose: 12.5 mg/kg/injection, schedule: Q01DX009 (ip), vehicle: Klucel (hydroxypropylcellulose) (HPC).

Each structure is given as a SMILES string. Values joined by “and” are separate entries in the source; they are usually repeats but may differ in a detail not shown here. Equal values may be shown once. Toxic doses and inconclusive results are not listed.

For `CCC(=O)O[C@H]1CC[C@H]2[C@@H]3CCC4=CC(=O)CC[C@]4(C)[C@H]3CC[C@]12C`, the T/C is 104 % of control (dose: 100.0 mg/kg/injection, schedule: Q01DX009 (sc), vehicle: steriod suspending solution); 105 % of control (dose: 100.0 mg/kg/injection, schedule: Q04DX003 (sc), vehicle: steriod suspending solution); 87 % of control (dose: 200.0 mg/kg/injection, schedule: Q01DX009 (sc), vehicle: steriod suspending solution); 100 % of control (dose: 200.0 mg/kg/injection, schedule: Q04DX003 (sc), vehicle: steriod suspending solution); 91 % of control (dose: 400.0 mg/kg/injection, schedule: Q01DX009 (sc), vehicle: steriod suspending solution); 100 % of control (dose: 400.0 mg/kg/injection, schedule: Q04DX003 (sc), vehicle: steriod suspending solution).

Take `FC(F)(F)c1ccc2nc(CI)c(CI)nc2c1`: the T/C reads like this: (dose: 1.37 mg/kg/injection, schedule: Q01DX009 (ip), vehicle: saline) 115 % of control; (dose: 1.5 mg/kg/injection, schedule: Q01DX009 (ip), vehicle: Klucel (hydroxypropylcellulose) (HPC)) 105 % of control; (dose: 2.05 mg/kg/injection, schedule: Q01DX009 (ip), vehicle: saline) 115 % of control; (dose: 3.0 mg/kg/injection, schedule: Q01DX009 (ip), vehicle: Klucel (hydroxypropylcellulose) (HPC)) 105 % of control; (dose: 6.0 mg/kg/injection, schedule: Q01DX009 (ip), vehicle: Klucel (hydroxypropylcellulose) (HPC)) 111 % of control; (dose: 12.0 mg/kg/injection, schedule: Q01DX009 (ip), vehicle: Klucel (hydroxypropylcellulose) (HPC)) 122 % of control. For the same compound, the T/C runs as follows: (dose: 12.0 mg/kg/injection, schedule: Q01DX009 (ip), vehicle: saline) 105 % of control; (dose: 12.0 mg/kg/injection, schedule: Q04DX003 (ip), vehicle: Klucel (hydroxypropylcellulose) (HPC)) 118 % of control; (dose: 12.5 mg/kg/injection, schedule: Q01DX009 (ip), vehicle: saline with Tween-80) 105 % of control; (dose: 18.0 mg/kg/injection, schedule: Q01DX009 (ip), vehicle: saline) 100 % of control; (dose: 24.0 mg/kg/injection, schedule: Q01DX009 (ip), vehicle: Klucel (hydroxypropylcellulose) (HPC)) 122 % of control; (dose: 25.0 mg/kg/injection, schedule: Q04DX003 (ip), vehicle: Klucel (hydroxypropylcellulose) (HPC)) 109 % of control. The T/C (dose: 27.0 mg/kg/injection, schedule: Q01DX009 (ip), vehicle: saline) is 105 % of control; the T/C (dose: 28.0 mg/kg/injection, schedule: Q01DX009 (ip), vehicle: saline) was 100 % of control; the T/C (dose: 40.0 mg/kg/injection, schedule: Q01DX009 (ip), vehicle: saline) was 89 % of control; the T/C (dose: 48.0 mg/kg/injection, schedule: Q01DX009 (ip), vehicle: Klucel (hydroxypropylcellulose) (HPC)) is 122 % of control.

As for `O=[N+]([O-])c1cc2c(c([N+](=O)[O-])c1)OCOC2`, the T/C by setting is: (dose: 25.0 mg/kg/injection, schedule: Q01DX009 (ip), vehicle: saline with Tween-80) 95 % of control; (dose: 50.0 mg/kg/injection, schedule: Q01DX009 (ip), vehicle: saline with Tween-80) 95 % of control; under setting [1], 86 % of control; under setting [2], 100 % of control; under setting [3], 95 % of control.

As for `C(=N/c1ncn[nH]1)/Nc1ncn[nH]1`, the T/C runs as follows: (dose: 12.5 mg/kg/injection, schedule: Q01DX009 (ip), vehicle: suspension in saline) 100 % of control; (dose: 25.0 mg/kg/injection, schedule: Q01DX009 (ip), vehicle: suspension in saline) 113 % of control; (dose: 50.0 mg/kg/injection, schedule: Q01DX009 (ip), vehicle: suspension in saline) 118 % of control; (dose: 100.0 mg/kg/injection, schedule: Q01DX009 (ip), vehicle: suspension in saline) 96 % of control.

As for `CC(Cl)CN(CC(C)Cl)c1ccc(S(=O)(=O)Nc2ncccn2)cc1` (stereo not given), the T/C was 152 % of control (dose: 12.0 mg/kg/injection, schedule: Q01DX009 (ip), vehicle: gum acacia); 166 % of control and 172 % of control (dose: 26.0 mg/kg/injection, schedule: Q01DX009 (ip), vehicle: gum acacia); 175 % of control (dose: 40.0 mg/kg/injection, schedule: Q01DX009 (ip), vehicle: gum acacia); 190 % of control (dose: 50.0 mg/kg/injection, schedule: Q01DX009 (ip), vehicle: gum acacia); 100 % of control (dose: 50.0 mg/kg/injection, schedule: Q04DX003 (ip), vehicle: gum acacia); 183 % of control (dose: 60.0 mg/kg/injection, schedule: Q01DX009 (ip), vehicle: gum acacia). Also, the T/C was 183 % of control and 215 % of control (dose: 90.0 mg/kg/injection, schedule: Q01DX009 (ip), vehicle: gum acacia); 272 % of control (dose: 100.0 mg/kg/injection, schedule: Q01DX009 (ip), vehicle: gum acacia); 100 % of control (dose: 100.0 mg/kg/injection, schedule: Q04DX003 (ip), vehicle: gum acacia); 230 % of control (dose: 133.0 mg/kg/injection, schedule: Q01DX009 (ip), vehicle: gum acacia); 105 % of control (dose: 200.0 mg/kg/injection, schedule: Q04DX003 (ip), vehicle: gum acacia).

Consider `CC(O)C(c1ccccc1)S(C)(=O)=O` (stereo not given), for which the T/C is 95 % of control (dose: 100.0 mg/kg/injection, schedule: Q04DX003 (ip), vehicle: Klucel (hydroxypropylcellulose) (HPC)); 104 % of control (dose: 200.0 mg/kg/injection, schedule: Q04DX003 (ip), vehicle: Klucel (hydroxypropylcellulose) (HPC)); 91 % of control (dose: 400.0 mg/kg/injection, schedule: Q04DX003 (ip), vehicle: Klucel (hydroxypropylcellulose) (HPC)).

As for `Nc1[nH]nc2nccnc12`, the T/C under setting [1] is 108 % of control; the T/C under setting [2] was 100 % of control; the T/C (dose: 200.0 mg/kg/injection, schedule: Q01DX009 (ip), vehicle: saline with Tween-80) was 100 % of control; the T/C under setting [3] was 104 % of control; the T/C (dose: 400.0 mg/kg/injection, schedule: Q01DX009 (ip), vehicle: saline with Tween-80) was 100 % of control; the T/C (dose: 400.0 mg/kg/injection, schedule: Q04DX003 (ip), vehicle: saline with Tween-80) is 109 % of control.

`CC[N+](C)(C)Cc1ccccc1`: the T/C is 106 % of control (dose: 6.25 mg/kg/injection, schedule: Q01DX009 (ip), vehicle: saline) and 106 % of control (dose: 12.5 mg/kg/injection, schedule: Q01DX009 (ip), vehicle: saline).

As for `CC(=O)[O][Hg][c]1c(C)c(C)c(C)c(C)c1C`, the T/C (dose: 3.12 mg/kg/injection, schedule: Q01DX009 (ip), vehicle: Klucel (hydroxypropylcellulose) (HPC)) is 98 % of control; the T/C (dose: 6.25 mg/kg/injection, schedule: Q01DX009 (ip), vehicle: Klucel (hydroxypropylcellulose) (HPC)) was 109 % of control; the T/C under setting [4] is 90 % of control and 107 % of control.

With `c1ccc(OCC2CO2)c(OCC2CO2)c1` (stereo not given), the T/C by setting is: (dose: 60.0 mg/kg/injection, schedule: Q01DX005 (ip), vehicle: saline with Tween-80) 157 % of control; (dose: 120.0 mg/kg/injection, schedule: Q01DX005 (ip), vehicle: saline with Tween-80) 185 % of control; (dose: 240.0 mg/kg/injection, schedule: Q01DX005 (ip), vehicle: saline with Tween-80) 171 % of control.

As for `O=Cc1c2ccc(Cl)cc2nc2ccc(Cl)cc12`, the T/C by setting is: (dose: 100.0 mg/kg/injection, schedule: Q01DX001 (ip), vehicle: saline with Tween-80) 100 % of control; (dose: 200.0 mg/kg/injection, schedule: Q01DX001 (ip), vehicle: saline with Tween-80) 100 % of control; (dose: 400.0 mg/kg/injection, schedule: Q01DX001 (ip), vehicle: saline with Tween-80) 100 % of control.

For the compound `CCOCCC(O)CC` (stereo not given), the T/C is 100 % of control (dose: 178.0 mg/kg/injection, schedule: Q04DX003 (ip), vehicle: saline); 100 % of control (dose: 266.0 mg/kg/injection, schedule: Q04DX003 (ip), vehicle: saline); 100 % of control (dose: 400.0 mg/kg/injection, schedule: Q04DX003 (ip), vehicle: saline).

Turning to `CCCCCCC1CCC(N)CC1` (stereo not given), the T/C by setting is: under setting [4], 97 % of control; (dose: 25.0 mg/kg/injection, schedule: Q01DX009 (ip), vehicle: Klucel (hydroxypropylcellulose) (HPC)) 101 % of control.

For the compound `CC1(C)C2CCC1(C)C(OC(=O)c1ccc([N+](=O)[O-])cc1)C2OC(=O)c1ccc([N+](=O)[O-])cc1` (stereo not given), the T/C is, setting by setting: (dose: 75.0 mg/kg/injection, schedule: Q04DX003 (ip), vehicle: other) 100 % of control; (dose: 150.0 mg/kg/injection, schedule: Q04DX003 (ip), vehicle: other) 91 % of control; (dose: 300.0 mg/kg/injection, schedule: Q04DX003 (ip), vehicle: other) 91 % of control.

These data come from PubChem BioAssay AID328 (DTP/NCI, 2004).
